Measured values as given in ChEMBL document CHEMBL1201862, “PubChem BioAssay data set” (2004).
Activity calls are given as the source filed them.

Key:
Cytochrome P450 3A4 = Cytochrome P450 3A4 (Homo sapiens, UniProt P08684);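 also: CYP3A4 tested as one member of a cytochrome P450 panel screen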
[1] = HGIII-sPLA2 enzyme inhibition potency – biochemical, QFRET, IC50, dose response (AID 743457);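 also: green fluorescence rise as the enzyme cleaves BODIPY PC-A2 in liposomes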
Cytochrome P450 2D6 = Cytochrome P450 2D6 (Homo sapiens, UniProt P10635);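 also: CYP2D6 member of a cytochrome P450 panel assay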
Cytochrome P450 2C9 = Cytochrome P450 2C9 (Homo sapiens, UniProt P11712)
[2] = target: Photoreceptor-specific nuclear receptor (Homo sapiens, UniProt Q9Y5X4); type: functional, cell-based;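 also: CHO-S cells with Gal4-NCOR and VP16-NR2E3 two-hybrid luciferase reporter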
[3] = target: T1, Methionyl-tRNA synthetase, putative (Trypanosoma brucei brucei, UniProt Q38C91); type: functional, Trypanosoma brucei brucei strain 927/4 GUTat10.1
T1 sequence (Q38C91 whole entry): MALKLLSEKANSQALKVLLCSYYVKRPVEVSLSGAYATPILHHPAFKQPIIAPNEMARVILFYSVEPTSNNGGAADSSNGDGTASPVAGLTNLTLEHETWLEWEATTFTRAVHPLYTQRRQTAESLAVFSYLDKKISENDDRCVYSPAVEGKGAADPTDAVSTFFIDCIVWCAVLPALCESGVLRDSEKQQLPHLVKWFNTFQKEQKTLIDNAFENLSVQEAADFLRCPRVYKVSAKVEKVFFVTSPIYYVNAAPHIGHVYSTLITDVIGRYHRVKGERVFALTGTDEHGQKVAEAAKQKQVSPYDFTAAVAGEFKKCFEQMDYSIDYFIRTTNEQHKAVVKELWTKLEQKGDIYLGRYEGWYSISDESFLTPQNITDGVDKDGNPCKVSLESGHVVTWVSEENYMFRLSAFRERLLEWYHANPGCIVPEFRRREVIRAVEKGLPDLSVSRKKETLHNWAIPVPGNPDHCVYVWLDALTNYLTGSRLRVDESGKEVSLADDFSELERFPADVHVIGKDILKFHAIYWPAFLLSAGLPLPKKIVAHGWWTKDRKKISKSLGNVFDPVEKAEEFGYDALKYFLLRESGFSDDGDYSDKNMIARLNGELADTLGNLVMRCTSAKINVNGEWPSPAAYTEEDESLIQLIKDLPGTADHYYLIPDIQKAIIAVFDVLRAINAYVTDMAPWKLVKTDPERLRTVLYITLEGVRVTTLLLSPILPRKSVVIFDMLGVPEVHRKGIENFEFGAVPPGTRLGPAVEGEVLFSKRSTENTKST

[4] = target: T1, Methionyl-tRNA synthetase, putative; type: functional, Trypanosoma brucei brucei strain 927/4 GUTat10.1; remark: listed apart in the source
[5] = Counterscreen for activators of the function of SWI/SNF related, matrix associated, actin dependent regulator of chromatin, subfamily a, member 2 (SMARCA2, BRM): Luminescence-based cell-based high throughput dose response assay to identify non-selective compounds using the VP16 reporter assay.; type: functional
[6] = target: SWI/SNF-related matrix-associated actin-dependent regulator of chromatin subfamily A member 2 (Homo sapiens, UniProt P51531); test: Luminescence-based cell-based high throughput dose response assay to identify activators of the function of SWI/SNF related, matrix associated, actin dependent regulator of chromatin, subfamily a, member 2 (SMARCA2, BRM).; type: functional
[7] = Counterscreen for inhibitors of Trypanosoma brucei methionyl tRNA synthetase (MetRS): Luminescence-based cell-based high throughput dose response assay to identify compounds that are cytotoxic to Jurkat human T lymphocyte cells.; type: functional
Major prion protein = Major prion protein (Homo sapiens, UniProt P04156); type: functional, cell-based
[8] = target: Matrix metalloproteinase-14 (Homo sapiens, UniProt P50281); test: Dose Response confirmation of uHTS hits for a small molecule inhibitors of MT1-MMP activation in a fluorescence assay set 1.; type: functional
[9] = viability of HCT116 lacking mutant beta-catenin – cell-based, human colon tumor, dose response (AID 1045); type: functional;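 also: HCT116 colon tumor cells with beta catenin knocked out; cells exposed to compound for 60 hours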
[10] = Luminescence Cell-Based Dose Retest to Confirm Inhibitors of Cancer Stem Cells. [Related pubchem assays (depositor defined):AID2717, AID2721]; type: functional; conditions: Homo sapiens
[11] = viability of PTEN-deleted HCT116 cells – cell-based, HCT116 PTEN knockout, dose response (AID 1047); type: functional;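 also: HCT116 colon tumor cells with PTEN knocked out; cells exposed to compound for 60 hours before readout; potency for loss of cell viability measured by luminescence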
Vero = test: cells; type: functional; conditions: Chlorocebus sabaeus
[12] = viability loss of HMLE_sh_eGFP cells – cell-based, luminescence, counter-screen for HMLE_sh_ECad selective toxicity project, dose response (AID 463074); type: functional, Homo sapiens;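 also: HMLE human mammary epithelial cells expressing control shRNA against eGFP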
HEK293 [13] = test: optical interference in Abeta FP readout, dose response, artefact control for IDE activator project, biochemical, fluorescence polarization (AID 588442); type: functional, cell-based; conditions: Homo sapiens
HEK293 [14] = test: membrane integrity loss in HEK cells – cell-based, fluorescence, cytotoxicity control for IDE activator project, dose response (AID 588440); type: functional; conditions: Homo sapiens;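 also: cytotoxicity by LDH release measuring loss of membrane integrity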
[15] = activation of miR-122 Renilla sensor silencing – cell-based, Huh7 psiCHECK-miR122, Renilla luciferase, cherry-picked, dose response (AID 651956); type: functional;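 also: huh7 hepatoma cells stably carrying a psiCHECK-2 miR-122 sensor plasmid; renilla luciferase signal reporting endogenous miR-122 activity after 48 h compound exposure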
[16] = target: T2, Microphthalmia-associated transcription factor (Homo sapiens, UniProt O75030); test: reducers of TRPM1 reporter luminescence, concentration series – cell-based, SK-MEL-5, cherry-picked, set 3, MITF inhibitor project, dose response (AID 493073); type: functional;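 also: SK-MEL-5 melanoma cells with luciferase driven by the MITF target TRPM1 promoter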
T2 sequence (O75030 whole entry): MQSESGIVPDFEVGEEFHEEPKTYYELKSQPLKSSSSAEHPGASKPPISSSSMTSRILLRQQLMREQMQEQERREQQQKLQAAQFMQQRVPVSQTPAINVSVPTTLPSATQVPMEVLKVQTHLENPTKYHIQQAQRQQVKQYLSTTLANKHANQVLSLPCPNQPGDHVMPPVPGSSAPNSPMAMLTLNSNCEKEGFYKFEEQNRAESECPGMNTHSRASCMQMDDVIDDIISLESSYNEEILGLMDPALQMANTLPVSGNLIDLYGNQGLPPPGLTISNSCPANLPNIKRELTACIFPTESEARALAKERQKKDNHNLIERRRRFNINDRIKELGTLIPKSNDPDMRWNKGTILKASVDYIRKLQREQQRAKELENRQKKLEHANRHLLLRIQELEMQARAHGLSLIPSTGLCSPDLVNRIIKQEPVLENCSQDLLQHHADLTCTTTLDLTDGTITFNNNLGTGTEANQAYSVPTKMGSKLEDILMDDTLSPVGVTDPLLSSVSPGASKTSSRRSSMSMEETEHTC

[17] = viability of uninfected HEp-2 cells – cell-based, HTS, cytotoxicity control for RSV inhibitor project, dose response (AID 2410); type: functional; conditions: human respiratory syncytial virus
[18] = target: T3, DNA repair protein RAD52 homolog (Homo sapiens, UniProt P43351); type: functional, biochemical
T3 sequence (P43351 whole entry): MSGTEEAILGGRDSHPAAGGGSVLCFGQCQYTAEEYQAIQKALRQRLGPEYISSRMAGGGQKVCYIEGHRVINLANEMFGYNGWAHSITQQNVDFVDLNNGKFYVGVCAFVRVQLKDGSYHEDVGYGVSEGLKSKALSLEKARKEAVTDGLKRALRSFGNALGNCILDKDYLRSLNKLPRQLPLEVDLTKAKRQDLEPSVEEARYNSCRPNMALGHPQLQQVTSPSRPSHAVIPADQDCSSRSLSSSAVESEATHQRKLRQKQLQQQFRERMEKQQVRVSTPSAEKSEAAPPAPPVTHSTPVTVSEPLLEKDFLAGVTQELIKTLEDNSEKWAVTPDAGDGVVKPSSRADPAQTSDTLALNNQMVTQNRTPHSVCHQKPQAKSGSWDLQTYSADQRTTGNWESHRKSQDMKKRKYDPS

Insulin-degrading enzyme [19] = target: T4, Insulin-degrading enzyme (Homo sapiens, UniProt P14735); test: cellular IDE activation of Abeta substrate cleavage – fluorescence polarization, HEK cells, dose response (AID 588439); type: functional, cell-based
T4 sequence (P14735 whole entry): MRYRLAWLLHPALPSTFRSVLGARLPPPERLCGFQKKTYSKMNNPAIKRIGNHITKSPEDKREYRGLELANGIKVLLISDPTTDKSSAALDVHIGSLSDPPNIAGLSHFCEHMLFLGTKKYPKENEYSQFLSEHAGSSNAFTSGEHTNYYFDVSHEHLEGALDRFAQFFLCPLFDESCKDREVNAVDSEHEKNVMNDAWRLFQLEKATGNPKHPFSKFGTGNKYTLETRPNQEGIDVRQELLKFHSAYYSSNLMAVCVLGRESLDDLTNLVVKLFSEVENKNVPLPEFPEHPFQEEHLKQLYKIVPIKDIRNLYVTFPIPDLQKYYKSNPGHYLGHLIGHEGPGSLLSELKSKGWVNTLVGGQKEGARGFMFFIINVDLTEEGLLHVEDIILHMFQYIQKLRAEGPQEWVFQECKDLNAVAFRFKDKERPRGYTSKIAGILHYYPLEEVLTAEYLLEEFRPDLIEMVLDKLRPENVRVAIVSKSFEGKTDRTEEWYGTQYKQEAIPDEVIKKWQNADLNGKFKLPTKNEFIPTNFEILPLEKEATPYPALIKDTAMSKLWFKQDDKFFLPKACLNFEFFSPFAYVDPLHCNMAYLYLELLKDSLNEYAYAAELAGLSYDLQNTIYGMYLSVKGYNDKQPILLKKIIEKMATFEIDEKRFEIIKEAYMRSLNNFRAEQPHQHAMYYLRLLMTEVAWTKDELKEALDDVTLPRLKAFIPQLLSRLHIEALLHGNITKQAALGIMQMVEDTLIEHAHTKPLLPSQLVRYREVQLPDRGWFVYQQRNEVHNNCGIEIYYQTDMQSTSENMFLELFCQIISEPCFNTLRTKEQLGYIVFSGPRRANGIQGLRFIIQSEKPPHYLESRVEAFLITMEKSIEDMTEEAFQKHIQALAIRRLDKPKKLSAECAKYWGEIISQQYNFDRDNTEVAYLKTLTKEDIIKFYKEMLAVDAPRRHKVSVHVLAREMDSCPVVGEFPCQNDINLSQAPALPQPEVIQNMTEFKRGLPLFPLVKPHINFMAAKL

[20] = general mammalian cell viability loss – inhibitor set, cherry-pick, set 2, cytotoxicity control for miR-122 modulator project, dose response (AID 720697); type: functional, cell-based
[21] = general mammalian cell viability loss – activator set, cherry-pick, cytotoxicity control for miR-122 modulator project, dose response (AID 720690); type: functional, cell-based;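 also: HEK293T human cells scored for general mammalian cytotoxicity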
A-375 = test: proliferation inhibition in MITF-low A375 cells – cell-based, cherry-pick samples, set 2, counter-screen for MITF modulator project, dose response (AID 540335); type: functional; conditions: Homo sapiens
Insulin-degrading enzyme [22] = target: T4, Insulin-degrading enzyme; test: recombinant IDE activation, cell-free – biochemical, fluorescence polarization, counter-screen for IDE activator project, dose response (AID 588681)
Melanocortin receptor 4 = Melanocortin receptor 4 (Homo sapiens, UniProt P32245); type: functional, cell-based;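 also: Cell-based assay with luminescence read-out, confirmatory dose-response testing for agonist activity of biased ligands at MC4R; human U2OS cells with tagged receptor and beta-arrestin; potency of agonists that increase receptor coupling to beta-arrestin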

In the case of S=C(Nc1ccccc1)Nc1nccs1, the AC50 (Cytochrome P450 3A4) is reported as 15.8 µM (inconclusive), the IC50 [1] is reported as > 122 µM (inactive) and the AC50 (Cytochrome P450 2D6) is reported as 31.6 µM (inconclusive). For the same molecule, the AC50 (Cytochrome P450 2C9) was 20 µM (inconclusive).
With Cc1cccc(OCCCC(=O)Nc2nc3ccccc3[nH]2)c1 the IC50 [2] was 2.88 µM (active), the IC50 [3] was 39.5 µM (inactive) and the IC50 [4] was 4.34 µM (active). For the same molecule, the EC50 [5] was > 91.1 µM (inactive), the EC50 [6] was > 91.1 µM (inactive) and the IC50 [7] was 29.6 µM (inactive).
In the case of CCOC(=O)CSc1nc(Cc2ccccc2)nc2ccccc12, the IC50 (cells) is reported as > 138 µM (inactive) and the IC50 (Major prion protein) is reported as 4.31 µM (active).
With O=C(NNc1c2ccccc2nc2ccccc12)c1cc2ccccc2cc1O the IC50 [8] was 24.4 µM (inactive), the EC50 [9] was 7.12 µM (active) and the AC50 [10] was 27 µM (active). For the same molecule, the EC50 [11] was 6.4 µM (active), the CC50 (Vero) was 2.61 µM (active) and the AC50 [12] was 28.2 µM (active).
With COc1cccc2sc(N(CCCN(C)C)C(=O)C(c3ccccc3)c3ccccc3)nc12 the EC50 (HEK293 [13]) was > 54.7 µM (inactive), the IC50 (HEK293 [14]) was 10.2 µM (inactive) and the AC50 [15] was 8.07 µM (active). For the same molecule, the AC50 [16] was 15.1 µM (active), the CC50 [17] was 13.6 µM (active) and the AC50 [18] was 13.3 µM (active). The EC50 (Insulin-degrading enzyme [19]) was 15.1 µM (inactive), the AC50 [20] was 1.77 µM (active) and the AC50 [21] was 16.2 µM (active). The AC50 (A-375) was 18.3 µM (active), the EC50 (Insulin-degrading enzyme [22]) was > 54.7 µM (inactive) and the EC50 (Melanocortin receptor 4) was > 89.2 µM (inactive).
